Test results as given in patent US20130171098A1, “Cyclopropyl Fused Indolobenzazepine HCV NS5B Inhibitors” (priority 2006, published 2013).
pEC50, pIC50: −log10 of the molar value. Like-named read-outs stand apart in the source and are kept apart here.

Legend:
HCV replicon cells = test: HCV replicon FRET / luciferase assay; format: cell-based, Hepatitis C virus
[1] = target: T1, HCV NS5B RdRp genotype 1b (Hepatitis C virus genotype 1b, UniProt Q9WMX2); test: HCV NS5B RdRp enzyme assay (standard / modified); format: biochemical
T1 construct: The protein was expressed with an 18 amino acid C-terminal truncation to enhance the solubility; made in house; host or cells: E. coli BL21(DE3), pET21a vector

[2] = HCV replicon cells, FRET or luciferase activity
[3] = HCV NS5B RdRp genotype 1b enzyme
[4] = Hepatitis C virus, HCV replicon cells, FRET or luciferase activity, read-out: EC50
[5] = HCV NS5B RdRp genotype 1b enzyme, read-out: IC50

T1 sequence (Q9WMX2 2420-2992): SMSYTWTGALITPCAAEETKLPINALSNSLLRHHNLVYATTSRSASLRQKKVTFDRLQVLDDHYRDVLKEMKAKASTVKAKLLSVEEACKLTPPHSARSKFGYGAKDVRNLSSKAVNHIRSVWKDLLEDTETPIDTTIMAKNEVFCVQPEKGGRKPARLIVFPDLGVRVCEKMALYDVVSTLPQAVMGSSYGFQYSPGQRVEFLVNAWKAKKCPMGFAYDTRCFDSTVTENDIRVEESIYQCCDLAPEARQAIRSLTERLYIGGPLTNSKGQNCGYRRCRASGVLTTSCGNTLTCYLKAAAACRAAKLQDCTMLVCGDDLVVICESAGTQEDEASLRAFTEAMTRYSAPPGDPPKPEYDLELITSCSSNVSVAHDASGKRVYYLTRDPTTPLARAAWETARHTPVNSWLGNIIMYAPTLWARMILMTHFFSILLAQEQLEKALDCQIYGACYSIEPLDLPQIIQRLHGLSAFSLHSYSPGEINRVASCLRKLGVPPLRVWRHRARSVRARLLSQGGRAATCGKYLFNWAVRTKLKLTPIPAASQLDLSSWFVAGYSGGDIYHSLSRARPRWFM

Row | SMILES | pEC50 (HCV replicon cells; Hepatitis C virus) | pIC50 [1] | pEC50 (HCV replicon cells; [2]) | pIC50 [1, 3] | also measured
1 | COc1ccc2c(c1)C1CC1(C(=O)N1C3CCC1CN(C)C3)Cn1c-2c(C2CCCCC2)c2ccc(C(=O)NS(=O)(=O)N(C)C3CC3)cc21 (centres unmarked) [drawing 99] | 6.30 to 9.00 | 6.30 to 9.00 | – | – | –
2 | CN1CC2CCC(C1)N2C(=O)C1=Cc2c(OC(F)(F)F)cccc2-c2c(C3CCCCC3)c3ccc(C(=O)NS(=O)(=O)N(C)C)cc3n2C1 | < 6.30 | < 6.30 | – | – | –
3 | CCN(CC)S(=O)(=O)NC(=O)c1ccc2c(C3CCCCC3)c3n(c2c1)CC1(C(=O)N2C4CCC2CN(C)C4)CC1c1cc(OC)ccc1-3 (centres unmarked) [drawing 110] | – | – | 6.30 to 9.00 | 6.30 to 9.00 | –
4 | COc1ccc2c(c1)C1CC1(C(=O)N1C3CCC1CN(C(C)=O)C3)Cn1c-2c(C2CCCCC2)c2ccc(C(=O)NS(=O)(=O)N(C)C)cc21 (centres unmarked) [drawing 60] | – | – | 6.30 to 9.00 | 6.30 to 9.00 | –
5 | COc1ccc2c(c1)[C@@H]1CC1[C@@H](C(=O)N1C3CCC1CN(C)C3)n1c-2c(C2CCCCC2)c2ccc(C(=O)N(C)S(=O)(=O)N(C)C)cc21 (some centres unmarked) | < 7.40 | < 6.30 | – | – | –
6 | COc1ccc2c(c1)C1CC1(C(=O)N1C3CCC1CNC3)Cn1c-2c(C2CCCCC2)c2ccc(C(=O)NS(=O)(=O)N(C)C)cc21 (centres unmarked) [drawing 59] | – | – | 6.30 to 9.00 | 6.30 to 9.00 | –
7 | CCN(CC)C(=O)N1CC2CCC(C1)N2C(=O)C12CC1c1cc(OC)ccc1-c1c(C3CCCCC3)c3ccc(C(=O)NS(=O)(=O)C4CC4)cc3n1C2 (centres unmarked) [drawing 92] | 6.30 to 9.00 | 6.30 to 9.00 | – | – | –
8 | COc1ccc2c(c1)C1CC1(C(=O)N1C3CCC1CN(Cc1ccccc1)C3)Cn1c-2c(C2CCCCC2)c2ccc(C(=O)NS(=O)(=O)N(C)C)cc21 (centres unmarked) [drawing 58] | – | – | 6.30 to 9.00 | 6.30 to 9.00 | –
9 | COc1ccc2c(c1)C1CC1(C(=O)N1C3CCC1CN(C)C3)Cn1c-2c(C2CCCCC2)c2ccc(C(=O)NS(=O)(=O)N3CCC3)cc21 (centres unmarked) [drawing 51] | – | – | 6.30 to 9.00 | 6.30 to 9.00 | –
10 | COc1ccc2c(c1)C1CC1(C(=O)N1C3CCC1CN(C)C3)Cn1c-2c(C2CCCCC2)c2ccc(C(=O)NS(=O)(=O)N(C)C)cc21 (centres unmarked) [drawing 46] | – | – | – | – | pEC50 (HCV replicon cells; [4]): 6.30 to 9.00; pIC50 [1, 5]: 6.30 to 9.00
11 | CCC(C)S(=O)(=O)NC(=O)c1ccc2c(C3CCCCC3)c3n(c2c1)C[C@@]1(C(=O)N2C4CCC2CN(C)C4)C[C@H]1c1cc(OC)ccc1-3 (some centres unmarked) [drawing 133] | – | – | 6.30 to 9.00 | 6.30 to 9.00 | –
12 | COc1ccc2c(c1)C1CC1(C(=O)N1C3CCC1CN(C)C3)Cn1c-2c(C2CCCCC2)c2ccc(C(=O)NS(=O)(=O)N3CCCCC3)cc21 (centres unmarked) [drawing 108] | – | – | 6.30 to 9.00 | 6.30 to 9.00 | –
13 | CCN(CC)C(=O)N1CC2CCC(C1)N2C(=O)C12CC1c1cc(OC)ccc1-c1c(C3CCCCC3)c3ccc(C(=O)NS(=O)(=O)N4CCN(C)CC4)cc3n1C2 (centres unmarked) [drawing 93] | 6.30 to 9.00 | 6.30 to 9.00 | – | – | –
14 | CCN(CC)S(=O)(=O)NC(=O)c1ccc2c(C3CCCCC3)c3n(c2c1)CC1(C(=O)N2C4CCC2CN(C)C4)CC1c1cc(OC)ccc1-3 (centres unmarked) [drawing 97] | 6.30 to 9.00 | 6.30 to 9.00 | – | – | –
15 | CCS(=O)(=O)NC(=O)c1ccc2c(C3CCCCC3)c3n(c2c1)CC1(C(=O)N2C4CCC2CN(C)C4)CC1c1cc(OC)ccc1-3 (centres unmarked) [drawing 104] | – | – | 6.30 to 9.00 | 6.30 to 9.00 | –
16 | COc1ccc2c(c1)C1CC1(C(=O)NC1CC3CCC(C1)N3C)Cn1c-2c(C2CCCCC2)c2ccc(C(=O)NS(=O)(=O)N(C)C)cc21 (centres unmarked) [drawing 39] | 6.30 to 9.00 | 6.30 to 9.00 | – | – | –
17 | COc1ccc2c(c1)[C@@H]1C[C@]1(C(=O)N1C3CCC1CN(C)C3)Cn1c-2c(C2CCCCC2)c2ccc(C(=O)NS(=O)(=O)N(C)C)cc21 | – | – | – | – | pEC50 (HCV replicon cells; [4]): 6.30 to 9.00; pIC50 [1, 5]: 6.30 to 9.00
18 | COc1ccc2c(c1)[C@@H]1C[C@]1(C(=O)N1[C@@H]3CC[C@H]1CN(S(C)(=O)=O)C3)Cn1c-2c(C2CCCCC2)c2ccc(C(=O)NS(=O)(=O)N(C)C)cc21 | 6.30 to 9.00 | 6.30 to 9.00 | – | – | –
19 | CN1CC2CCC(C1)N2C(=O)C12CC1c1cc(OC(F)F)ccc1-c1c(C3CCCCC3)c3ccc(C(=O)NS(=O)(=O)N(C)C)cc3n1C2 (centres unmarked) [drawing 90] | 6.30 to 9.00 | 6.30 to 9.00 | – | – | –

Row | SMILES | pEC50 (HCV replicon cells; Hepatitis C virus) | pIC50 [1] | pEC50 (HCV replicon cells; [2]) | pIC50 [1, 3] | also measured
20 | COc1ccc2c(c1)C1CC1(C(=O)NC1CC3CCC(C1)N3C)Cn1c-2c(C2CCCCC2)c2ccc(C(=O)NS(=O)(=O)N(C)C)cc21 (centres unmarked) [drawing 64] | – | – | 6.30 to 9.00 | 6.30 to 9.00 | –
21 | CCN1CC2CCC(C1)N2C(=O)C12CC1c1cc(OC)ccc1-c1c(C3CCCCC3)c3ccc(C(=O)NS(=O)(=O)N(C)C)cc3n1C2 (centres unmarked) [drawing 36] | 6.30 to 9.00 | 6.30 to 9.00 | – | – | –
22 | COc1ccc2c(c1)C1CC1(C(=O)N1C3CCC1CN(c1ccccn1)C3)Cn1c-2c(C2CCCCC2)c2ccc(C(=O)NS(=O)(=O)N(C)C)cc21 (centres unmarked) [drawing 67] | – | – | 6.30 to 9.00 | 6.30 to 9.00 | –
23 | CCC(C)S(=O)(=O)NC(=O)c1ccc2c(C3CCCCC3)c3n(c2c1)CC(C(=O)N1C2CCC1CN(C)C2)=Cc1cc(OC)ccc1-3 (centres unmarked) | 6.30 to 9.00 | 6.30 to 9.00 | – | – | –
24 | COc1ccc2c(c1)[C@@H]1CC1(C(=O)N1C3CCC1CN(C)C3)Cn1c-2c(C2CCCCC2)c2ccc(C(=O)NS(=O)(=O)C3CCC3)cc21 (some centres unmarked) | – | 6.30 to 9.00 | – | – | pEC50 (HCV replicon cells; [4]): 6.30 to 9.00
25 | COc1ccc2c(c1)C1CC1C(C(=O)N1C3CCC1CN(C)C3)n1c-2c(C2CCCCC2)c2ccc(C(=O)NS(=O)(=O)C3CC3)cc21 (centres unmarked) [drawing 113] | – | – | 6.30 to 9.00 | 6.30 to 9.00 | –
26 | CCS(=O)(=O)NC(=O)c1ccc2c(C3CCCCC3)c3n(c2c1)CC1(C(=O)N2C4CCC2CN(C)C4)CC1c1cc(OC)ccc1-3 (centres unmarked) [drawing 91] | 6.30 to 9.00 | 6.30 to 9.00 | – | – | –
27 | COc1ccc2c(c1)C1CC1(C(=O)N1C3CCC1CN(C)C3)Cn1c-2c(C2CCCCC2)c2ccc(C(=O)NS(=O)(=O)C3CC3)cc21 (centres unmarked) | 6.30 to 9.00 | 6.30 to 9.00 | – | – | –
28 | COc1ccc2c(c1)C1CC1(C(=O)N1C3CCC1CN(C)C3)Cn1c-2c(C2CCCCC2)c2ccc(C(=O)NS(N)(=O)=O)cc21 (centres unmarked) [drawing 63] | – | – | 6.30 to 9.00 | 6.30 to 9.00 | –
29 | COc1cccc2c1C1CC1(C(=O)N1C3CCC1CN(C)C3)Cn1c-2c(C2CCCCC2)c2ccc(C(=O)O)cc21 (centres unmarked) | 6.30 to 9.00 | 6.30 to 9.00 | – | – | –
30 | COc1ccc2c(c1)C1CC1(C(=O)N1[C@@H]3CC[C@H]1CN(C(C)=O)C3)Cn1c-2c(C2CCCCC2)c2ccc(C(=O)NS(=O)(=O)N(C)C)cc21 (some centres unmarked) | 6.30 to 9.00 | 6.30 to 9.00 | – | – | –
31 | COc1ccc2c(c1)C1CC1(C(=O)N1C3CCC1CN(C)C3)Cn1c-2c(C2CCCCC2)c2ccc(C(=O)NS(=O)(=O)N3CCC3)cc21 (centres unmarked) [drawing 30] | – | – | 6.30 to 9.00 | 6.30 to 9.00 | –
32 | COc1ccc2c(c1)C1CC1(C(=O)N1C3CCC1CN(C)C3)Cn1c-2c(C2CCCCC2)c2ccc(C(=O)NS(=O)(=O)N3CCOCC3)cc21 (centres unmarked) [drawing 31] | 6.30 to 9.00 | 6.30 to 9.00 | – | – | –
33 | COc1ccc2c(c1)C1CC1(C(=O)N1CC3CCC(C1)N3C(=O)OC(C)(C)C)Cn1c-2c(C2CCCCC2)c2ccc(C(=O)NS(=O)(=O)N(C)C)cc21 (centres unmarked) | 6.30 to 9.00 | > 7.70 | – | – | –
34 | CCN(C)S(=O)(=O)NC(=O)c1ccc2c(C3CCCCC3)c3n(c2c1)CC1(C(=O)N2C4CCC2CN(C)C4)CC1c1cc(OC)ccc1-3 (centres unmarked) [drawing 96] | 6.30 to 9.00 | 6.30 to 9.00 | – | – | –
35 | CNS(=O)(=O)NC(=O)c1ccc2c(C3CCCCC3)c3n(c2c1)CC1(C(=O)N2C4CCC2CN(C)C4)CC1c1cc(OC)ccc1-3 (centres unmarked) [drawing 47] | – | – | 6.30 to 9.00 | 6.30 to 9.00 | –
36 | COc1ccc2c(c1)C1CC1(C(=O)N1C3CCC1CN(C)C3)Cn1c-2c(C2CCCCC2)c2ccc(C(=O)NS(=O)(=O)NC3CC3)cc21 (centres unmarked) [drawing 42] | 6.30 to 9.00 | 6.30 to 9.00 | – | – | –
37 | COc1ccc2c(c1)C1CC1(C(=O)N1C3CCC1CN(C)C3)Cn1c-2c(C2CCCCC2)c2ccc(C(=O)NS(=O)(=O)N3C[C@@H](C)O[C@@H](C)C3)cc21 (some centres unmarked) [drawing 94] | 6.30 to 9.00 | 6.30 to 9.00 | – | – | –
